The record followed here is US20060106028A1, “Polycyclic aromatics and derivatives thereof and processes for their preparation” (priority 2004, published 2006).

The subject of data set [1] is PC-3 (prostate adenocarcinoma). Kind of data set: In vitro tumor growth inhibition (GI50, propidium iodide). Format: cell-based. As to conditions: 96 hrs.
For data set [2], the system named is Escherichia coli (ATCC™ 25922). Put plainly: Antibacterial activity (NCCLS M7-A5). As to conditions: MH medium. Format: cell-based.
In data set [3] the test system is Clostridium difficile (ATCC™ 9689). Put plainly: Antibacterial activity, MIC (NCCLS M11-A5, anaerobic). It is filed as cell-based. As to conditions: Clostridioides difficile; Brucella medium with hemin, vitamin K1 and 5% lysed horse blood; read-out: MIC. The method, then: Antibacterial activity of Compounds 1 and 2 (Table 7) was measured by determining the minimal inhibitory concentration (MIC) necessary to obtain a complete inhibition of bacteria growth in seven indicator strains, namely Staphylococcus aureus (ATCC™ 6538P), Staphylococcus aureus MRS3 (ATCC™ 700699), Enterococcus faecalis VRE-1 (ATCC™ 29212), Enterococcus faecalis VRE-2 (ATCC™ 51299), Escherichia coli (ATCC™ 25922), Streptococcus pneumoniae (LSPQ 3412) and Streptococcus pneumoniae PenR (LSPQ 3349). Indicator strains preparation and MIC determination were performed according to the National Committee for Clinical Laboratory Standards (NCCLS) guideline M7-A5 Methods for Dilution Antimicrobial Susceptibility Tests for Bacteria That Grow Aerobically; Approved Standard-Fifth Edition. (NCCLS document M7-A5, ISBN 1-56238-394-9; NCCLS, 940 West Valley Road, Suite 1400, Wayne, Pa. 19087-1898 USA), the content of which is incorporated herein by reference. MIC determination against C. difficile was performed according to National Committee for Clinical Laboratory Standards (NCCLS) guideline M11-A5 Methods for Antimicrobial Susceptibility Testing of Anaerobic Bacteria.
Compounds 1 and 2 were prepared as 100× stock solutions in DMSO, with concentrations ranging from 3.2 mg/mL to 0.003 mg/mL (a two-fold dilution series over 11 points). An aliquot of each 100× stock solution was diluted 50-fold in test medium described below to give a set of eleven (11) 2× solutions. 50 μL of each of the eleven 2× solutions was aliquoted into the corresponding well of a 12-well row, with the final well reserved for medium alone control.
Vancomycin (Sigma™), used as positive control compound, was prepared as 2× stock solutions in Mueller-Hinton test medium ranging from 64 μg/mL to 0.06 μg/ml (a two-fold dilution series over 11 points). An aliquot of 50 μL corresponding to each concentration (at 2×) was then transferred to 96-well microplates to obtain a series of eleven two-fold dilutions.
An isolated colony of each of the indicator strains was used to inoculate tubes containing 2 mL of test medium. […]

Another data set relates to SF268 (CNS). Kind of data set: In vitro tumor growth inhibition (GI50, propidium iodide). It is filed as cell-based. As to conditions: Homo sapiens; SF-268; 96 hrs.
A further data set deals with CRL nu/nu mice. Kind of data set: Repeated dose toxicity in CRL nu/nu mice. Format: in vivo. Here is the method: Repeated dose toxicity was evaluated in CRL nu/nu mice (6% Tween/4.5% Glycocholate/5% EtOH formulation). The MTTD (maximum total tolerated dose) was 25 mg/kg with a qd×4 dosage regimen.
For data set [4], the system named is Streptococcus pneumoniae (LSPQ 3412). Put plainly: Antibacterial activity, MIC (NCCLS M7-A5). Format: cell-based. As to conditions: MH medium +2% lysed horse blood.
The next data set concerns 36 cancer cell lines. Kind of data set: In vitro cytotoxic activity, mean of all cell lines of the panel. As to conditions: mean over the 36 cell lines. Format: cell-based. The method, then: Culture conditions and activity evaluations of Compound 1 against 36 cancer cell lines were done as described below. Results were expressed as the concentration of drug which inhibits 50% of the cell growth (IC50, calculated using the formula: [Ti/C]×100=−50).
The compound was dissolved at 10 mM in DMSO. Dilution in vehicle to concentrations of 30, 10, 3, 1 and 0.3 μM were prepared immediately before assays. Depending on the cell line's growth characteristics, 4000-10000 cells were plated in two 96-wells pates (day 0) and incubated for 16 hours. The following day, propidium iodide was added to one of the two plates. Test compound was added to the second plate, as well as vehicle control, and cells further incubated for 96 hours. The compound was tested at each concentration and in triplicates. The equivalent cell number was determined after adding propidium iodide by measuring the signal by fluorescence (Ti for test article, C for control).

For data set [5], the system named is Enterococcus faecalis VRE-2 (ATCC™ 51299). Put plainly: Antibacterial activity, MIC (NCCLS M7-A5). It is filed as cell-based. As to conditions: BHI+ medium, 35° C., 16 to 20 hours.
In data set [6] the test system is Staphylococcus aureus MRS3 (ATCC™ 700699). Put plainly: Antibacterial activity, MIC (NCCLS M7-A5). It is filed as cell-based. As to conditions: MH medium, 35° C., 16 to 20 hours.
The subject of data set [7] is Staphylococcus aureus (Smith strain, ATCC™ 13709). Kind of data set: In vivo antimicrobial efficacy in infected ICR mice. As to conditions: ip, ICR mice infected i.p., compound i.p. one hour post infection in 1% SDS, mortality recorded for 7 days, read-out: median effective dose (ED50). The method, then:
In vivo efficacy studies were performed on ICR mice (supplied by Charles River Laboratories, Wilmington, Mass.) having a bodyweight of 20±2 g. Mice (38) were inoculated i.p. with an LD90-100 dose (1×10^6 CFU/mouse) of Staphylococcus aureus (Smith strain, ATCC™ 13709) suspended in 0.5 mL of BHI containing 5% mucin. Compound 1 at doses 0.1, 0.5, 1 and 5 mg/kg (formulated in 1% SDS for a total volume of 5 μL/g of weight) was administered i.p. one hour post infection (5 mice for each concentration). Another group of 5 mice was treated i.v. with a 10 mg/kg dose of Vancomycin. Finally, a group of 3 mice was administered vehicle only. Mortality was recorded for 7 days.

SMILES strings stand for the structures. Converted amounts (≈) assume the structure as drawn.

One may read the GI50 as the concentration that inhibits growth by half. A low value points to greater sensitivity of the cells. As usually defined, the MIC is the lowest concentration found to suppress growth. For orientation: IC50 means the point on the concentration scale where inhibition reaches its midpoint. Read a high IC50 as lower potency. In general, ED50 refers to the dose at which the effect has come halfway, by size or by number of responders. As to `CCC(C)c1cc2c(=O)c3ccc4c(OC)c5c(=O)c6c(O)ccc(O)c6c(=O)c5c(O)c4c3c(=O)c2c(=O)n1CC(=O)N1CC(C(=O)O)NC(=O)C1C` (centres unmarked) [Compound 1], the GI50 in data set [1] was found to be 11.1 µM; in the data set with SF268 (CNS), 3.36 µM. The Antibacterial activity result in data set [2] is “inactive”. The MIC in data set [3] is 0.06 µg/mL (≈ 0.0813 µM); in data set [4] it was 0.5 to 1 µg/mL (≈ 0.678 to 1.36 µM); in data set [5] it was 0.125 µg/mL (≈ 0.169 µM); in [6], 0.016 µg/mL (≈ 0.0217 µM). Also, in the data set on CRL nu/nu mice (qd×4 dosage regimen, 6% Tween/4.5% Glycocholate/5% EtOH formulation), the “MTTD (maximum total tolerated dose)” value was 25 mg/kg. In the data set with CRL nu/nu mice (spleen and liver, repeated dosage), the “Organ findings following repeated dosage” value was “Adaptive hypertrophy and hyperplasia were observed in spleen and liver”. In the data set with 36 cancer cell lines, this compound displayed an IC50 of 9.34 µM. The ED50 in [7] is less than 0.1 mg/kg.
